Source: patent US8575170B2, “Flurbiprofen analogs and methods of use in treating cancer” (The Regents of the Unversity of Colorado, a body corporate, priority 2010, dated 2013)
Where two headings read alike, the source gives them in different places.

What was measured:
[1] = test system: H2122; experiment: MTT cell viability, H2122 lung carcinoma cell line; type: cell-based; conditions: IC50 values for the H2122 lung carcinoma cell line, Table 5, read-out: H2122 In vitro
Experimental: The ability of the flurbiprofen analog compounds of the invention to inhibit cancer cell growth and survival (viability) in a variety of cancer lines was examined in a standard MTT assay for cell viability, as detailed in Example 2.
The IC50 values given in Tables 1-4 were measured using the B1031 ([…]) compound) shown in Section IIB above. To confirm the generality of the results with respect to other fluribprofen analogs prepared in accordance with the invention, IC50 values for the other 11 analog compounds given in Section IIB were similarly determined for the H2122 lung carcinoma cell line.
The studies reported in Tables 1-3 above were carried out by incubating the cells in the test compound for four days, under standard cell-culture conditions, and measuring cell survival on day 5 (see Example 2).
Cell growth and survival following treatment with N—[(S)-2-Fluoro-α-methyl-4-biphenylacetyl]-[L-(4-phenylphenyl)alanine]-N-(2,2,6,6-tetramethyl-4-piperidinyl)amide (GCBH-110=B1031; (S)-Fmba-L-Bip-Atmp) were measured by a rapid colorimetric assay based on the tetrazolium salt MTT (3-(4,5-dimethylthiazol-2-yl)-2,5-diphenyl tetrazolium bromide) (Mosmann, J. Immunol. Methods 65: 55-63, 1983, with minor modifications).
Briefly, approximately 1,000-5,000 cancer cells from 15 different cancer cells lines were plated in 100 μL of growth medium in 96-well flat-bottomed microtiter plates. Cells were incubated overnight to allow recovery. Compounds to be tested were added to the cells in triplicate in a range of concentrations and the cells were incubated at 37° C., 5% CO2, with 100% humidity. Control cells were treated in the same way without antagonists. […] Plates were incubated for 4 days, allowing sufficient time for cell replication and compound-induced cell death to occur. On day 5, 25 μL of a 2 mg/mL solution of MTT (Sigma) dissolved in RMPI-1640 was added to each well. The plate was incubated for 4 h at 37° C. The supernatant liquid was removed and the blue formazan complex was dissolved by adding 100 μL of 0.02 N HCl in 75% isopropanol to all wells. Absorbance was immediately determined using a scanning multiwell plate reader.

[2] = Solubility of flurbiprofen analog compounds; type: physicochemical; conditions: medium in which the compound is soluble, Table 5
[3] = test system: H2122 lung carcinoma solid tumor xenograft; experiment: H2122 lung carcinoma xenograft in nude mice; type: in vivo, athymic nude mice; conditions: 5 mg/kg daily intraperitoneal, from day 7 after implantation, over the 25 days of treatment, FIG. 11
Experimental: The efficacy of the treatment method was examined for both lung carcinoma-cell tumors and pancreatic-cell tumors implanted in athymic mice, according to the method detailed in Example 3. In the first study, mice injected with lung-carcinoma cells were treated, seven days after cancer-cell implantation, by daily injection of 5 mg/kg body weight of one of three different flurbiprofen analog compounds: B1005 (GCBH 104); B1020 (GCBH 108) and B1031 (GCBH 110). Tumor size was measured by calipers at the days indicated in FIG. 11, with final tumor weight and volume being determined by extracting the tumor from the sacrificed animals.
Compounds having high in vitro cytotoxic activity were tested against implanted tumors in vivo. In one study, athymic nude mice were implanted subcutaneously with suspensions of approximately 2 million H2122 lung carcinoma cells, in Matrigel suspension. On the seventh day after tumor implantation, groups of 5 mice bearing implants were injected intraperitoneally with the compounds being tested at 5 mg/kg/every day; control animals were injected with an equal volume of isotonic saline. […] Tumor size was measured with a caliper three times per week. Tumor volume was calculated by the formula: Volume (cc)=3.14×(length)×(width)^2/6
At autopsy, tumors were removed and weighed. Tumor inhibition was calculated on both weight and measurement basis.

[4] = test system: HT-29 colon cancer cells; experiment: Loss in cell viability, HT-29 colon cancer cells; type: cell-based; conditions: Homo sapiens; HT-29 colon cancer cell, FIG. 6A
Experimental: FIGS. 6A and 6B show the loss in cell viability in HT-29 colon cancer cells, in response to increasing concentrations of GH 502 (GCBH 118) (FIG. 6A), and the effect of various treatments, including increasing concentration of GH501 (GCBH 110) on U251 malignant glioma cells and BTIC EF12 brain tumor initiating stem cells (FIG. 6B).
The study shown in FIG. 6A examined the effect of GCBH-118 (GH502) on an HT-29 colon cancer cell, showing an IC50 value of about 1 μM. […] The graph indicates an IC50 value for the B1031 compound against the U251 brain cancer cell line of between 2 and 10 μM.

Compound | IC50 ([1]; Homo sapiens, NCI-H2122) | Solubility [2] | IC50 [1] | inhibition of growth of the lung carcinoma cell line H2122 tumor [3] | IC50 [4]
CC(C(=O)N[C@@H](Cc1ccc(OCc2c(Cl)cccc2Cl)cc1)C(=O)NC1CC(C)(C)NC(C)(C)C1)c1ccc(-c2ccccc2)c(F)c1 (stereo partly drawn) [GCBH-100, N—[(R,S)-2-Fluoro-α-methyl-4-biphenylacetyl]-[O-(2,6,dichlorobenzyl)-L-tyrosine]-N-(2,2,6,6-tetramethyl-4-piperidinyl)amide] | 4 µM | 50% DMSO |  |  | 
CC(C(=O)N[C@@H](Cc1ccc(OCc2c(Cl)cccc2Cl)cc1)C(=O)NCCCN1CCN(C)CC1)c1ccc(-c2ccccc2)c(F)c1 (stereo partly drawn) [GCBH-102, N—[(R,S)-2-Fluoro-α-methyl-4-biphenylacetyl]-[O-(2,6,dichlorobenzyl)-L-tyrosine]-N-[3-(4-methyl-1-piperizinyl)propyl]amide] |  | 20% DMSO | 8 µM |  | 
CC(C(=O)N[C@@H](Cc1ccc(-c2ccccc2)cc1)C(=O)NC1CC(C)(C)NC(C)(C)C1)c1ccc(-c2ccccc2)c(F)c1 (stereo partly drawn) [GCBH-104, N—[(R,S)-2-Fluoro-α-methyl-4-biphenylacetyl]-[L-(4-phenylphenyl)alanine]-N-(2,2,6,6-tetramethyl-4-piperidinyl)amide] |  |  |  | 74% | 
CC(C(=O)N[C@H](C(=O)NC1CC(C)(C)NC(C)(C)C1)C(c1ccccc1)c1ccccc1)c1ccc(-c2ccccc2)c(F)c1 (some centres unmarked) [GCBH-106] | 1.2 µM | 50% DMSO |  |  | 
CC(C(=O)N[C@@H](Cc1ccc(OCc2c(Cl)cccc2Cl)cc1)C(=O)NC1CC(C)(C)NC(C)(C)C1)c1ccc(-c2ccccc2)c(F)c1 (stereo partly drawn) [GCBH-112, N—[(R,S)-2-Fluoro-α-methyl-4-biphenylacetyl]-[O-(2,6,dichlorobenzyl)-L-tyrosine]-N-(2,2,6,6-tetramethyl-4-piperidinyl)amide] |  | 50% DMSO | 1.6 µM |  | 
CC(C(=O)N[C@@H](Cc1csc2ccccc12)C(=O)NC1CC(C)(C)NC(C)(C)C1)c1ccc(-c2ccccc2)c(F)c1 (stereo partly drawn) [GCBH-114, N—[(R,S)-2-Fluoro-α-methyl-4-biphenylacetyl]-(L-3-benzothienylalanine)-N-(2,2,6,6-tetramethyl-4-piperidinyl)amide] | 1.2 µM | 50% DMSO |  |  | 
CC(C(=O)N[C@@H](CC1CCCCC1)C(=O)NC1CC(C)(C)NC(C)(C)C1)c1ccc(-c2ccccc2)c(F)c1 (stereo partly drawn) [GCBH-116, N—[(R,S)-2-Fluoro-α-methyl-4-biphenylacetyl]-(β-cyclohexyl-L-alanine)-N-(2,2,6,6-tetramethyl-4-piperidinyl)amide] | 2.3 µM | 20% DMSO |  |  | 
CC(C(=O)N[C@@H](Cc1cccnc1)C(=O)NC1CC(C)(C)NC(C)(C)C1)c1ccc(-c2ccccc2)c(F)c1 (stereo partly drawn) [GCBH-118, N—[(R,S)-2-Fluoro-α-methyl-4-biphenylacetyl]-(β-3-pyridyl-L-alanine)-N-(2,2,6,6-tetramethyl-4-piperidinyl)amide] | 1.4 µM |  |  |  | ~1 µM
C[C@H](C(=O)NC(CC(=O)NC1CC(C)(C)NC(C)(C)C1)c1ccc(-c2ccccc2)cc1)c1ccc(-c2ccccc2)c(F)c1 (stereo partly drawn) [GCBH-120, N—[(S)-2-Fluoro-α-methyl-4-biphenylacetyl]-[R,S,-β-(p-biphenyl)-β-alanine]-N-(2,2,6,6-tetramethyl-4-piperidinyl)amide] | 5.4 µM | 50% DMSO |  |  | 
C[C@H](C(=O)N[C@@H](Cc1ccc(C(F)(F)F)cc1)C(=O)NC1CC(C)(C)NC(C)(C)C1)c1ccc(-c2ccccc2)c(F)c1 [GCBH-122, N—[(S)-2-Fluoro-α-methyl-4-biphenylacetyl]-[(4-trifluoromethyl)-L-phenylalanine]-N-(2,2,6,6-tetramethyl-4-piperidinyl)amide] | 2.1 µM | 50% DMSO |  |  | 
C[C@H](C(=O)N[C@@H](Cc1ccc(F)cc1)C(=O)NC1CC(C)(C)NC(C)(C)C1)c1ccc(-c2ccccc2)c(F)c1 [GCBH-124, N—[(S)-2-Fluoro-α-methyl-4-biphenylacetyl]-[(4-fluoro)-L-phenylalanine]-N-(2,2,6,6-tetramethyl-4-piperidinyl)amide] | 2.5 µM | 20% DMSO |  |  | 
C[C@H](C(=O)N[C@@H](Cc1ccc(N(CCCl)CCCl)cc1)C(=O)NC1CC(C)(C)NC(C)(C)C1)c1ccc(-c2ccccc2)c(F)c1 [GCBH-126] | 3.8 µM | 20% DMSO |  |  | 
